Assay results taken from patent publication US11464824B2, “Peptide capable of improving cognitive function” (THE FOOD SCIENCE INSTITUTE FOUNDATION, priority 2018, dated 2022).

Legend:
[1] = system: male dd Y mice fed a 60% high-fat diet; test: Spatial memory evaluation test: object location test (OLT); format: in vivo; conditions: YLG 10 mg/kg/day oral for 1 week, test on day 7, FIG. 4
Procedure: (§1) Four-week-old male dd Y mice were divided into 3 groups (8 mice per group). The mice were reared for 1 week such that Group 1 was fed a normal diet (3.85 kcal/g: 20 kcal % of protein, 70 kcal % of carbohydrate, and 10 kcal % of lipid), and Group 2 and Group 3 were fed a 60% high-fat diet (5.24 kcal/g: 20 kcal % of protein, 20 kcal % of carbohydrate, and 60 kcal % of lipid). During the period, the YLG tripeptide was orally administered to Group 3 daily in an amount of 10 mg/kg/day.
(§2) On day 6 and day 7 after the initiation of feeding, two behavioral tests (episodic memory evaluation test: object recognition test (ORT), and a spatial memory evaluation test: object location test (OLT)), which are known as cognitive function evaluation systems, were performed, as well as a hippocampal neurogenesis evaluation test using deoxyuridine bromide (BrdU). On day 7, the brain hippocampus was removed, and a BDNF mRNA expression level in the hippocampus was measured.
The OLT is a behavioral test that evaluates spatial memory, which is part of cognitive functions. […] The difference lies in that the location of only one object is changed in Trial 2. […] The cognitive function of the mice was evaluated using the ratio of the approach time for the object placed at the novel location to the total approach time for both objects as an index. […]

[2] = system: male dd Y mice fed a 60% high-fat diet; test: Insulin tolerance test; format: in vivo; conditions: YLG 10 mg/kg/day oral; for blood glucose level in the insulin tolerance test (relative value, level immediately before insulin = 100): day 7
Procedure: As in the glucose tolerance test, twelve-week-old male dd Y mice were divided into 3 groups (n=6-7), and the mice were reared for 1 week such that Group 1 was fed a normal diet, and Group 2 and Group 3 were fed a 60% high-fat diet. During the period, the YLG peptide was orally administered to Group 3 daily in an amount of 10 mg/kg/day. On day 7 after the initiation of feeding, insulin (0.5 U/kg/i.p.) was administered after fasting for 5 hours. The administration of the YLG peptide on day 7 was performed 2 hours before the insulin administration. Blood was collected from the tail vein immediately before insulin administration, and 15 minutes, 30 minutes, and 60 minutes after the administration to measure the blood glucose level using a glucose sensor (Nipro Corporation).
(§3) Tables 1 and 2 show changes in blood glucose level in the glucose tolerance test and changes in blood glucose level in the insulin tolerance test, respectively. The numerical values shown in each table are relative values, taking the blood glucose level immediately before the administration of glucose or insulin as 100.

[3] = system: male dd Y mice fed a 60% high-fat diet; test: Glucose tolerance test; format: in vivo; conditions: YLG 10 mg/kg/day oral; for blood glucose level in the glucose tolerance test (relative value, level immediately before glucose = 100): day 7
Procedure: Twelve-week-old male dd Y mice were divided into 3 groups (n=8). The mice were reared for 1 week such that Group 1 was fed a normal diet (3.85 kcal/g: 20 kcal % of protein, 70 kcal % of carbohydrate, and 10 kcal % of lipid), and Group 2 and Group 3 were fed a 60% high-fat diet (5.24 kcal/g: 20 kcal % of protein, 20 kcal % of carbohydrate, and 60 kcal % of lipid). During the period, the YLG peptide was orally administered to Group 3 daily in an amount of 10 mg/kg/day.
On day 7 after the initiation of feeding, glucose (2 g/kg/p.o.) was administered after fasting for 5 hours. The administration of the YLG peptide on day 7 was performed 2 hours before the glucose administration. Blood was collected from the tail vein immediately before the glucose administration, and 15 minutes, 30 minutes, and 60 minutes after the administration to measure the blood glucose level using a glucose sensor (Nipro Corporation).
as §3

[4] = reported in NPL 4; cited from earlier work
[5] = system: male dd Y mice fed a 60% high-fat diet; test: Episodic memory evaluation test: object recognition test (ORT); format: in vivo; conditions: YLG 10 mg/kg/day oral for 1 week, test on day 7, FIG. 2
Procedure: as §1, §2
The ORT is a behavioral test that evaluates episodic memory, which is part of cognitive functions. […] First, the mouse was placed in a square open field for 5 minutes for habituation. […] In Trial 2, the approach time of the mouse for each object was measured. […] The cognitive function of the mice was evaluated using the ratio of the approach time for the novel object to the total approach time for both objects as an index. […]

[6] = system: BDNF mRNA expression in the hippocampus; test: Brain-derived neurotrophic factor (BDNF) mRNA expression measurement test; format: in vivo; conditions: high-fat diet mice, YLG 10 mg/kg/day oral, day 7, RT-PCR, standardized with β-actin mRNA; FIG. 6
Procedure: as §1, §2
On day 7 after the initiation of feeding, the mice in each group (n=8) were dissected under anesthesia, and the hippocampus was removed from the brain. The removed hippocampus was stored in RNA later for RNA extraction. […] Then, the brain-derived neurotrophic factor (BDNF) mRNA expression level in the hippocampus was measured by RT-PCR according to a standard method. […]

[7] = system: BrdU-positive cells in the hippocampal dentate gyrus; test: Hippocampal neurogenesis evaluation test using deoxyuridine bromide (BrdU); format: in vivo; conditions: high-fat diet mice, YLG 10 mg/kg/day oral, day 7; FIG. 5
Procedure: as §1, §2
On day 6 after the initiation of feeding, 100 mg/kg of deoxyuridine bromide (BrdU) was intraperitoneally administered to the mice of each group (n=4), and after 24 hours (day 7), perfusion fixation was performed using 4% paraformaldehyde. Next, the whole brain was extracted and frozen to prepare frozen sections on a cryostat. […]

Tyr-Leu-Gly [YLG peptide]
ratio of the approach time for the object placed at the novel location to the total approach time for both objects (OLT, spatial memory) [1]: recovered to a level equal to that of the normal diet group
blood glucose level in the insulin tolerance test (relative value, level immediately before insulin = 100) ([2]; 15 min after insulin 0.5 U/kg i.p.): 90 ± 2
blood glucose level in the insulin tolerance test (relative value, level immediately before insulin = 100) ([2]; 30 min after insulin 0.5 U/kg i.p.): 78 ± 3
blood glucose level in the insulin tolerance test (relative value, level immediately before insulin = 100) ([2]; 60 min after insulin 0.5 U/kg i.p.): 70 ± 4
effect on insulin resistance induced by the high-fat diet (glucose and insulin tolerance tests, in words) [2]: improved insulin resistance induced by the high-fat diet
blood glucose level in the glucose tolerance test (relative value, level immediately before glucose = 100) ([3]; 15 min after glucose 2 g/kg p.o.): 190 ± 14
blood glucose level in the glucose tolerance test (relative value, level immediately before glucose = 100) ([3]; 30 min after glucose 2 g/kg p.o.): 169 ± 10
blood glucose level in the glucose tolerance test (relative value, level immediately before glucose = 100) ([3]; 60 min after glucose 2 g/kg p.o.): 113 ± 5
effect on the increase in blood glucose level caused by high-fat diet intake (glucose tolerance test, in words) [3]: prevented the increase in blood glucose level
anxiolytic effect [4]: anxiolytic effect
ratio of the approach time for the novel object to the total approach time for both objects (ORT, episodic memory) [5]: recovered to a level equal to that of the normal diet group
BDNF mRNA expression level in the hippocampus [6]: recovered to a level equal to or even greater than that of the normal diet group
number of BrdU-positive cells in the hippocampal dentate gyrus (hippocampal neurogenesis) [7]: recovered to a level equal to that of the normal diet group
